# From ChEMBL document CHEMBL2440075, “In vitro structure-activity relationships of aplysinopsin analogs and their in vivo evaluation in the chick anxiety-depression model” (Bioorg Med Chem, 2013)
# The source made the active and inactive calls. The calls are words filed in the database; no cut-off is given here.
# Experiments:
# [1] = target: 5-hydroxytryptamine receptor 5A (Homo sapiens, UniProt P47898); assay: Displacement of [3H]LSD from human recombinant 5HT5A receptor expressed in Flp-In CHO cells; format: cell-based
# Chain of 5-hydroxytryptamine receptor 5A (P47898 whole entry): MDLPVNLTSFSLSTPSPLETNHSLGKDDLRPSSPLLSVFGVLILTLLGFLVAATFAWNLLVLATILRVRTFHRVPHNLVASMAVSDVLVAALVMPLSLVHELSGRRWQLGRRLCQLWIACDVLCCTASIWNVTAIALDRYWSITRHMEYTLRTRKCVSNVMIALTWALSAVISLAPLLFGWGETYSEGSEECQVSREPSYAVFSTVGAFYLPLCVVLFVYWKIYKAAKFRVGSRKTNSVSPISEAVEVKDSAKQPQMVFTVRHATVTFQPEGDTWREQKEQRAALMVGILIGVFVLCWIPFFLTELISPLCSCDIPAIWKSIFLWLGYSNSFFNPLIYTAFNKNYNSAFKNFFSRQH
# [2] = target: 5-hydroxytryptamine receptor 1B (Homo sapiens, UniProt P28222); assay: Displacement of [3H]5-CT from human recombinant 5HT1B receptor stably expressed in HEK cells; format: cell-based, HEK293
# Chain of 5-hydroxytryptamine receptor 1B (P28222 whole entry): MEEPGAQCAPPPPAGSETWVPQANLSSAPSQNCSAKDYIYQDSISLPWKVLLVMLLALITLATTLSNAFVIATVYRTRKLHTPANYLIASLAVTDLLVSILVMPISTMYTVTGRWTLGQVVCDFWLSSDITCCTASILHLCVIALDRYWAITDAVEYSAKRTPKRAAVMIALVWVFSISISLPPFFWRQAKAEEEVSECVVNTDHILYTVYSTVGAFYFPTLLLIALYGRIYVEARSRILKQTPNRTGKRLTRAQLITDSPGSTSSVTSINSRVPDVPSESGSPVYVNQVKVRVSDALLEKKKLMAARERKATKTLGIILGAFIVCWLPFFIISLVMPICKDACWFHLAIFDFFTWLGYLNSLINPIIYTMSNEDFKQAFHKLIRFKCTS
# [3] = target: 5-hydroxytryptamine receptor 2A (Rattus norvegicus, UniProt P14842); assay: Displacement of [3H]ketanserin from rat 5HT2A receptor stably expressed in 3T3 cells; format: cell-based
# Chain of 5-hydroxytryptamine receptor 2A (P14842 whole entry): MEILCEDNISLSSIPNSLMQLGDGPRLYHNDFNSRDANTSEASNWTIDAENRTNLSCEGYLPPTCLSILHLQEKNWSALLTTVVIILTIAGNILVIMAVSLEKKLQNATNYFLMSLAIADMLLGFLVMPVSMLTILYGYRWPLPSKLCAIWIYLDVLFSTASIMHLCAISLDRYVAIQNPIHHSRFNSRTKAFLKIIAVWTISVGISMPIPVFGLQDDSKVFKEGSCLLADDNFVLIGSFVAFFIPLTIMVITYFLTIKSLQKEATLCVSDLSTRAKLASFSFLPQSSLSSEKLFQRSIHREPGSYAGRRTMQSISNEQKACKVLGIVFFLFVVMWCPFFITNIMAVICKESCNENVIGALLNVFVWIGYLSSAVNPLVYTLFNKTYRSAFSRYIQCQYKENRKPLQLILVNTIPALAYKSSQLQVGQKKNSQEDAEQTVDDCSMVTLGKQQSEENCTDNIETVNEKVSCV
# [4] = target: 5-hydroxytryptamine receptor 2B (Homo sapiens, UniProt P41595); assay: Displacement of [3H]LSD from human recombinant 5HT2B receptor stably expressed in HEK cells; format: cell-based, HEK293
# Chain of 5-hydroxytryptamine receptor 2B (P41595 whole entry): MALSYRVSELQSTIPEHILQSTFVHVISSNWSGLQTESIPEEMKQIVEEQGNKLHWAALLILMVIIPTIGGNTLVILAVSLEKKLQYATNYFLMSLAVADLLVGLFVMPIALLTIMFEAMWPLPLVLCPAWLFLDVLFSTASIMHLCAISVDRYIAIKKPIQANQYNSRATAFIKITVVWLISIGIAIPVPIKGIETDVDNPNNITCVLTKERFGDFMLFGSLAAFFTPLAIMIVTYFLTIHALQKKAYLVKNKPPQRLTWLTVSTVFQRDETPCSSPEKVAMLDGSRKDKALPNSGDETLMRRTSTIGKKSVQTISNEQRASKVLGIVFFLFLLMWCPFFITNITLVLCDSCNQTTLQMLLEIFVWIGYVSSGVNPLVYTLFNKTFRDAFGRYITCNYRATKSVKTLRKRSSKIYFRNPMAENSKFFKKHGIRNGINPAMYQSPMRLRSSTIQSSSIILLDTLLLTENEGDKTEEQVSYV
# [5] = target: T1, 5-hydroxytryptamine receptor 1A (Homo sapiens, UniProt P08908); assay: Displacement of [3H]way100635 from human recombinant 5HT1A receptor stably expressed in CHO cells; format: cell-based
# T1 sequence (P08908 whole entry): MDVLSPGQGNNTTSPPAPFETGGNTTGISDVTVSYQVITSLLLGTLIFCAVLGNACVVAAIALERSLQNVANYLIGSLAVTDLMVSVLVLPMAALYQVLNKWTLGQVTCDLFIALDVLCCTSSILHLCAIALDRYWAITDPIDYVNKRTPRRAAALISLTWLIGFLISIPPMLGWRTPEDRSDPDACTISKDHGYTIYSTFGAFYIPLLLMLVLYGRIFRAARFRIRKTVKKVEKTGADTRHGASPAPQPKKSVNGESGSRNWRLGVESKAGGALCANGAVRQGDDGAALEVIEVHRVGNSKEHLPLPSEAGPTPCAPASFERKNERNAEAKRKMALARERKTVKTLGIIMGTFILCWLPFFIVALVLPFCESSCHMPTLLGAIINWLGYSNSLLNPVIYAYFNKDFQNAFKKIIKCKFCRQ
# [6] = target: 5-hydroxytryptamine receptor 1D (Homo sapiens, UniProt P28221); assay: Displacement of [3H]5-CT from human recombinant 5HT1D receptor expressed in HEKT cells; format: cell-based
# Chain of 5-hydroxytryptamine receptor 1D (P28221 whole entry): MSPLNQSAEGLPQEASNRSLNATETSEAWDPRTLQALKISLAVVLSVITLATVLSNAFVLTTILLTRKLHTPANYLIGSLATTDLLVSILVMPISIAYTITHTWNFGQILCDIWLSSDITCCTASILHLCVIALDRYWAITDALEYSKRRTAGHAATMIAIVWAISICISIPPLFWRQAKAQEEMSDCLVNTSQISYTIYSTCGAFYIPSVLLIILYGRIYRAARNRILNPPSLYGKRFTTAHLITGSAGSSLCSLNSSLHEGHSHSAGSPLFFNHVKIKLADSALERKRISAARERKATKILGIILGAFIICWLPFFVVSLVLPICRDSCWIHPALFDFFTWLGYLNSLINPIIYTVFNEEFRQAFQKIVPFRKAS
# [7] = target: 5-hydroxytryptamine receptor 1E (Homo sapiens, UniProt P28566); assay: Displacement of [3H]5-HT from human recombinant 5HT1E receptor stably expressed in HEK cells; format: cell-based, HEK293
# Chain of 5-hydroxytryptamine receptor 1E (P28566 whole entry): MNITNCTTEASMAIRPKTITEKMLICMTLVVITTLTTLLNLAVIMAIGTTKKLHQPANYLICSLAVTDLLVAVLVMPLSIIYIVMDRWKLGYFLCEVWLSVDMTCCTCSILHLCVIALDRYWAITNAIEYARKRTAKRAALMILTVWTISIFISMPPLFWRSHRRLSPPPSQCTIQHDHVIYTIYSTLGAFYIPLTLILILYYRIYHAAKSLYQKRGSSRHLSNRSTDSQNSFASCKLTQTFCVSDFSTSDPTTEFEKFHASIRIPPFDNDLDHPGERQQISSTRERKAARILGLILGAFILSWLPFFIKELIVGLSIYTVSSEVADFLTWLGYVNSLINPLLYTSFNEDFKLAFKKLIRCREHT
# [8] = target: T2, 5-hydroxytryptamine receptor 3A (Homo sapiens, UniProt P46098); assay: Displacement of [3H]GR65630 from human recombinant 5HT3 receptor expressed in HEKT cells; format: cell-based
# T2 sequence (P46098 whole entry): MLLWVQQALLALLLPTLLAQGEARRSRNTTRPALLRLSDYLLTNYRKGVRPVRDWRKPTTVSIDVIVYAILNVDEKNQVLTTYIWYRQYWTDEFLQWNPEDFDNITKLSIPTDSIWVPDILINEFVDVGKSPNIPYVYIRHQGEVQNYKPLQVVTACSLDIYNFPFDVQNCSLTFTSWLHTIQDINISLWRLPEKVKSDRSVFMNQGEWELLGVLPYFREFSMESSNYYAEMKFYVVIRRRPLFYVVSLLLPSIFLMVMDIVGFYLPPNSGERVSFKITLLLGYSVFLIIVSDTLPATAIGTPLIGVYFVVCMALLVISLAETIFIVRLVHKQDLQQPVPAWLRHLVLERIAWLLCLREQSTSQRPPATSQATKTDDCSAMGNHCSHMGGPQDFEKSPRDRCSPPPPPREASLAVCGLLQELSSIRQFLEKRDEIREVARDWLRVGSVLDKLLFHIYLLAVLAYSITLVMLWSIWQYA
# [9] = target: T3, 5-hydroxytryptamine receptor 2C (Homo sapiens, UniProt P28335); assay: Displacement of [3H]mesulergine from human recombinant 5HT2C receptor expressed in Flp-IN HEK cells; format: cell-based, HEK293
# T3 sequence (P28335 whole entry): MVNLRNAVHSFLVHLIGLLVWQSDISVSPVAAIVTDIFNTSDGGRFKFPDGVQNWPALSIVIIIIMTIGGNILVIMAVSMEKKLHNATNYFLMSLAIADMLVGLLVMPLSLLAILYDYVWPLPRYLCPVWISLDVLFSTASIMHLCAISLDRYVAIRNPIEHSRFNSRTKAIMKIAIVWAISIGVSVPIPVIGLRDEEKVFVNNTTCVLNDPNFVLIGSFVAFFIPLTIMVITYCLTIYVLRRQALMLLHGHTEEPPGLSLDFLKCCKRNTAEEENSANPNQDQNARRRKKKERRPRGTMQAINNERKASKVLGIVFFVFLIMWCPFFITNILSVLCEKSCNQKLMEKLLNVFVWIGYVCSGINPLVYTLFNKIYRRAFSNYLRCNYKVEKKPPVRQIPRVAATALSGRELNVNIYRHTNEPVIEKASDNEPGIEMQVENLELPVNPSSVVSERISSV
# [10] = target: 5-hydroxytryptamine receptor 6 (Homo sapiens, UniProt P50406); assay: Displacement of [3H]LSD from human recombinant 5HT6 receptor stably expressed in HEK cells; format: cell-based, HEK293
# Chain of 5-hydroxytryptamine receptor 6 (P50406 whole entry): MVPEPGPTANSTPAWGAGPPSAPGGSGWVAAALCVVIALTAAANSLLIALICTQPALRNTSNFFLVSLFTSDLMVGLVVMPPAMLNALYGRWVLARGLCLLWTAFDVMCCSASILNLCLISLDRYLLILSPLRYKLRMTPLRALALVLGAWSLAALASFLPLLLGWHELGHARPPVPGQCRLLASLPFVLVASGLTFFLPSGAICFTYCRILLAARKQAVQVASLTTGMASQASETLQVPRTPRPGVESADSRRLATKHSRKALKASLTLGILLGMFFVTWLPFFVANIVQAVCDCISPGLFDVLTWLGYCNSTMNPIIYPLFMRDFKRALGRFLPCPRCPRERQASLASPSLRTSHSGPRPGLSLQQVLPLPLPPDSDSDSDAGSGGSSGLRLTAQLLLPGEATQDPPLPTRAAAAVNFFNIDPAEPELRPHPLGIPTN
# Gallus gallus [11] = assay: Effect on social seperation in chick anxiety-depression model assessed as attenuation of decline in distress vocalizations during depression-like phase at 5 mg/kg, ip 15 mins prior to behavioral testing measured after 45 to 60 mins; format: functional, organism-based; parameters: dose 5 mg/kg
# Gallus gallus [12] = assay: Effect on isolation-stressor in chick anxiety-depression model assessed as attenuation of decline in distress vocalizations during depression-like phase at 5 mg/kg, ip 15 mins prior to behavioral testing measured after 5 to 60 mins; format: functional, organism-based; parameters: dose 5 mg/kg
# Gallus gallus [13] = assay: Effect on social seperation in chick anxiety-depression model assessed as attenuation of decline in distress vocalizations during depression-like phase at 5 mg/kg, ip 15 mins prior to behavioral testing measured after 30 to 45 mins; format: functional, organism-based; parameters: dose 5 mg/kg
# Gallus gallus [14] = assay: Effect on social seperation in chick anxiety-depression model assessed as attenuation of decline in distress vocalizations during depression-like phase at 10 to 100 nM/kg, ip 15 mins prior to behavioral testing measured after 30 to 45 mins; format: functional, organism-based
# Gallus gallus [15] = assay: Effect on social seperation in chick anxiety-depression model assessed as reduction in distress vocalizations during anxiety-like phase at 10 to 100 nM/kg, ip 15 mins prior to behavioral testing measured for 1 to 5 mins; format: functional, organism-based
# [16] = target: 5-hydroxytryptamine receptor 7 (Homo sapiens, UniProt P34969); assay: Displacement of [3H]LSD from human recombinant 5HT7 receptor stably expressed in HEK cells; format: cell-based, HEK293
# Chain of 5-hydroxytryptamine receptor 7 (P34969 whole entry): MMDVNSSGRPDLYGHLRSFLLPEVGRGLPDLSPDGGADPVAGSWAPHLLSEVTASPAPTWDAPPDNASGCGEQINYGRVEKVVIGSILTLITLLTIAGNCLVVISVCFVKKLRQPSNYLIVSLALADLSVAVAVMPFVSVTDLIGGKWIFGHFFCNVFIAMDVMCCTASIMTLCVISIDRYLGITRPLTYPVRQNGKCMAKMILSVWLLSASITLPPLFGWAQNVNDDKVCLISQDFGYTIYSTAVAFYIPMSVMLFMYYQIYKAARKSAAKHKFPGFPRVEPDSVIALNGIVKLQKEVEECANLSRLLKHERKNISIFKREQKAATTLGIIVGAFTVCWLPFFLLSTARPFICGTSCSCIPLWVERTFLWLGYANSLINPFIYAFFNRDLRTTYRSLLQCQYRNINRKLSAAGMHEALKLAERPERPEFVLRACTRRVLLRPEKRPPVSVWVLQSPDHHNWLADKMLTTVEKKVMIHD
# Gallus gallus [17] = assay: Effect on social seperation in chick anxiety-depression model assessed as attenuation of decline in distress vocalizations during depression-like phase at 30 nM/kg, ip 15 mins prior to behavioral testing measured after 45 to 60 mins; format: functional, organism-based
# Gallus gallus [18] = assay: Effect on isolation-stressor in chick anxiety-depression model assessed as reduction in distress vocalizations during anxiety-like phase at 10 to 100 nM/kg, ip 15 mins prior to behavioral testing measured for 1 to 5 mins; format: functional, organism-based
# Gallus gallus [19] = assay: Effect on isolation-stressor in chick anxiety-depression model assessed as attenuation of decline in distress vocalizations during depression-like phase at 30 nM/kg, ip 15 mins prior to behavioral testing measured after 5 to 60 mins; format: functional, organism-based
SMILES,Ki [1] [µM],Ki [2] [µM],Ki [3] [µM],Ki [4] [µM],Ki [5] [µM],Ki [6] [µM],Ki [7] [µM],Ki [8] [µM],Ki [9] [µM],Ki [10] [µM],Ki [16] [µM],Activity (Gallus gallus [11]),Activity (Gallus gallus [12]),Activity (Gallus gallus [13]),Activity (Gallus gallus [14]),Activity (Gallus gallus [15]),Activity (Gallus gallus [17]),Activity (Gallus gallus [18]),Activity (Gallus gallus [19])
CN1C(=N)N(C)/C(=C/c2c[nH]c3cccc(Br)c23)C1=O,7.83,> 10,> 10,0.589,0.315,6.83,> 10,0.656,2.76,,,,,,,,,,
CN1C(=N)N(C)/C(=C/c2c[nH]c3c(Br)cccc23)C1=O,,> 10,,0.349,1.81,> 10,> 10,1.22,3.01,,,,,,,,,,
CN(C)CCCN1c2ccccc2CCc2ccccc21,,,,,,,,,,,,Active,Active,Active,,,,,

# Continued by falling Ki [4], values first:
Ki [1] [µM],Ki [2] [µM],Ki [3] [µM],Ki [4] [µM],Ki [5] [µM],Ki [6] [µM],Ki [7] [µM],Ki [8] [µM],Ki [9] [µM],Ki [10] [µM],Ki [16] [µM],SMILES,Activity (Gallus gallus [11]),Activity (Gallus gallus [12]),Activity (Gallus gallus [13]),Activity (Gallus gallus [14]),Activity (Gallus gallus [15]),Activity (Gallus gallus [17]),Activity (Gallus gallus [18]),Activity (Gallus gallus [19])
1.45,> 10,0.662,0.099,4.61,> 10,,5.92,0.32,1.41,,C/N=C1\NC(=O)/C(=C\c2c[nH]c3cccc(Br)c23)N1C,,,,,,,,
0.089,,0.058,0.051,,,,,0.035,0.742,0.512,N=C1NC(=O)/C(=C\c2c[nH]c3ccc(Br)cc23)N1,,,,inactive,Active,Active,inactive,Active
